AC50 data for 83 molecules are collected here from PubChem BioAssay AID463206 (Broad Institute, 2010).

Activity calls are given as the source filed them.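 Rule for the calls: active = caspase luminescence falls with dose and the half-maximal concentration AC50 from the fitted curve is at or below a set limit; inconclusive = flat fit at 30 to 70% signal loss, or invalid fit; inactive = AC50 above the limit, or signal rises instead.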

This assay relates to INS-1E cytokine-induced caspase-3/7, Caspase-Glo luminescence, 48 h. Description: inhibitors of cytokine-induced caspase-3/7 activity, dose response, orthogonal assay for beta-cell apoptosis protection project, INS-1E rat cells, luminescence (AID 463206).
On to `COCCCNC(=O)Cn1nnc(-c2ccc(NC(=O)c3cccnc3)cc2)n1`, for which the AC50 (as a rule, the midpoint of the concentration-response curve, whichever way the signal moves) was > 26 µM (inactive).

For `Cc1occc1C(=O)N1CCCC(N2CCN(c3cccc(C(F)(F)F)c3)CC2)C1` (stereo not drawn), the AC50 is > 26 µM (inactive).

Regarding `CN1/C(=C\C(=S)NC(=O)c2ccc([N+](=O)[O-])cc2)C(C)(C)c2ccccc21`, the AC50 is > 26 µM (inactive).

For `CCOc1ccc(S(=O)(=O)N(C)c2ccc(OCC(=O)Nc3nc4ccccc4s3)cc2)cc1`, the AC50 is > 26 µM (inactive).

On to `O=C(Nc1ncnc2c1C(c1ccccc1)c1c(ccc3ccccc13)O2)c1ccccc1` (stereo not drawn), for which the AC50 was > 26 µM (inactive).

In the case of `CC(=O)CSc1ccc(-c2nc3ccccc3[nH]2)cn1`, the AC50 is > 26 µM (inactive).

Turning to `Cc1ccc(S(=O)(=O)Nc2ccc(C(OC(=O)c3ccccc3[N+](=O)[O-])(C(F)(F)F)C(F)(F)F)cc2)cc1`, the AC50 is > 26 µM (inactive).

Regarding `CCOc1ccc(N=Cc2c(C)[nH]n(-c3nc4ccccc4[nH]3)c2=O)cc1`, the AC50 was > 26 µM (inactive).

For `[O-][n+]1onc2c1CCc1c-2nn(-c2ccccc2Cl)[n+]1[O-]`, the AC50 is 15.9 µM.

In the case of `CCOC(=O)c1cnc(-n2nc(C)cc2C)nc1Nc1ccc(O)cc1`, the AC50 is > 26 µM (inactive).

For the molecule `S=C(NCCCN1CCOCC1)N1CCN(c2nc(-c3ccc(Cl)cc3)cs2)CC1`, the AC50 was > 12 µM (inactive).

Regarding `Cc1ccc(-c2cn(-c3ccccc3)c3[n+]2CCCS3)cc1`, the AC50 is > 26 µM (inactive).

Regarding `Cc1nc(Nc2ccc(Cl)c(Cl)c2)sc1C(=O)Nc1ccccc1`, the AC50 is > 26 µM (inactive).

On to `Cc1cccnc1CN1CCN(C(=O)c2cc(COc3ccc4ncccc4c3)on2)CC1`, for which the AC50 is > 26 µM (inactive).

On to `CCN(CC)c1ccc(/C=N/NC(=O)c2cccc(S(=O)(=O)N3CCOCC3)c2)c(O)c1`, for which the AC50 was > 26 µM (inactive).

As to `CC(C)(C)OC(=O)NCCCCCc1cn([C@@H](CO)C(=O)NCCCCCCCCCCC(=O)N2CCN(C(=O)OC(C)(C)C)CC2)nn1`, the AC50 was > 26 µM (inactive).

For the molecule `O=C(CNc1ccccc1)N/N=C/c1c(O)ccc2ccccc12`, the AC50 is > 26 µM (inactive).

Turning to `CN(C)c1ccc(/C=C(\C#N)C(=O)OCC(=O)N(C)C2CCS(=O)(=O)C2)cc1` (stereo not drawn), the AC50 is > 26 µM (inactive).

In the case of `Cc1ccc(NC(=O)C(C)Sc2nnc(C)n2C2CC2)cc1S(=O)(=O)N1CCOCC1` (stereo not drawn), the AC50 was > 26 µM (inactive).

As for `CC(=O)Nc1sc2c(c1-c1nc3ccccc3s1)CCN(C(C)C)C2`, the AC50 was 3.1 µM.

Consider `O=c1[nH]c(=O)n(-c2ccc(F)cc2)c2c1C(C(F)(F)F)(C(F)(F)F)N=C(c1ccc(F)cc1)N2`, for which the AC50 is > 26 µM (inactive).

Turning to `Cc1cc(N2CCCC2=O)cc(C)c1S(=O)(=O)NCCOc1ccc(C(C)(C)C)cc1`, the AC50 is > 26 µM (inactive).

For the molecule `CCc1ccc2c(c1)C1(C(=O)N2)N2CCCC2C(C(=O)c2ccc3ccccc3c2)C12C(=O)Nc1ccccc12` (stereo not drawn), the AC50 was > 26 µM (inactive).

As for `CCN(CC)CCNC(=O)c1ccc(NC(=O)c2cn(-c3ccccc3)nc2-c2cccs2)cc1`, the AC50 is 18.2 µM.

With `CC1CCC(C(C)C)C(OC(=O)Cn2c(-c3ccccc3)[n+](C)c3ccccc32)C1` (stereo not drawn), the AC50 is > 26 µM (inactive).

With `CCCCC(=O)NC(c1ccco1)c1cc(Cl)c2cccnc2c1O` (stereo not drawn), the AC50 was > 26 µM (inactive).

Consider `CCNC(=O)Nc1cc(S(=O)(=O)Nc2ccc(OC)cc2)ccc1N1CCOCC1`, for which the AC50 is > 26 µM (inactive).

For `Cc1sc2ncnc(NCc3cccs3)c2c1C`, the AC50 is > 26 µM (inactive).

For the molecule `COc1ccc(/C=C/C(=O)c2ccc([N+](=O)[O-])o2)cc1`, the AC50 is > 26 µM (inactive).

With `CC(C)c1nc(-c2ccccc2)c(-c2ccccc2)[nH]1`, the AC50 is > 26 µM (inactive).

Turning to `CCOC(=O)c1c(C)[nH]c(C)c1C(=O)CSc1nc2ccccc2c(=O)n1-c1ccc(CC)cc1`, the AC50 is > 26 µM (inactive).

With `C/C(=N\NC(=O)c1cc(Br)ccc1O)c1ccccn1`, the AC50 is > 26 µM (inactive).

For the molecule `CCOC(=O)c1cnc(-n2nc(C)cc2C)nc1NC(C)c1ccccc1` (stereo not drawn), the AC50 was > 12 µM (inactive).

`Nc1c(C(=O)Nc2ccc3c(c2)OCCO3)nnn1Cc1ccccc1Cl`: the AC50 was > 26 µM (inactive).

On to `CCN(CC)C(=O)c1cc([N+](=O)[O-])cc2c1-c1ccc([N+](=O)[O-])cc1C2=C(C#N)C#N`, for which the AC50 is > 26 µM (inactive).

Turning to `CCCOc1ccc(C(=O)C(CN2CCOCC2)c2ccccc2)cc1` (stereo not drawn), the AC50 is > 12 µM (inactive).

Consider `CC1(C)CC(=O)C2=C(C1)OC1=C(C(=O)CC(C)(C)C1)C2c1ccc(O)cc1O`, for which the AC50 is > 26 µM (inactive).

As to `Cc1cccc(NC2=C/C(=N/S(=O)(=O)c3cccs3)c3ccccc3C2=O)c1`, the AC50 is > 26 µM (inactive).

On to `COc1ccc(C2C(O)C(c3c[nH]c4ccccc34)=NN2C(=O)CCl)cc1` (stereo not drawn), for which the AC50 is > 26 µM (inactive).

Take `Cc1ccc(C2=CC(c3ccc(N(C)C)cc3)n3nnnc3N2)cc1` (stereo not drawn): the AC50 is > 26 µM (inactive).

Turning to `CC1=C(CC(=O)c2ccc(Cl)cc2)C(=O)c2ccccc2C1=O`, the AC50 was > 26 µM (inactive).

`COC(=O)C1=C(C)N(Cc2ccccc2)C(=NCc2cccc(C(F)(F)F)c2)N[C@H]1c1cccc(C(F)(F)F)c1`: the AC50 was > 26 µM (inactive).

In the case of `CCCCCc1cc(=O)oc2c(C(CCN3CCCC(C)C3)c3ccc(OC)cc3)c(OC)cc(OC)c12` (stereo not drawn), the AC50 was > 26 µM (inactive).

Regarding `CC#CC[N+](C)(C)CCCCCCCC`, the AC50 is > 26 µM (inactive).

For the molecule `CC(C)Nc1ccc(Nc2ccnc3cc4ccccc4cc23)cc1`, the AC50 is 3.23 µM.

Regarding `Cc1cccc2sc(NNC(=O)c3ccc(S(=O)(=O)N4CCc5ccccc5C4)cc3)nc12`, the AC50 is > 26 µM (inactive).

`N#Cc1ccc(-c2csc(NNC(=O)c3ccccc3)n2)cc1`: the AC50 is > 26 µM (inactive).

Turning to `O=C(N/N=C/c1ccc([N+](=O)[O-])s1)C(O)c1ccccc1` (stereo not drawn), the AC50 is > 26 µM (inactive).

As for `COc1cnc(-c2ccccn2)nc1Sc1ccc(C)cc1`, the AC50 was > 26 µM (inactive).

In the case of `Cc1cc[n+](C(C)C(=O)c2ccc(-c3ccccc3)cc2)cc1` (stereo not drawn), the AC50 is > 26 µM (inactive).

Regarding `COc1cccc(N=Nc2ccc3cccnc3c2O)c1`, the AC50 is > 26 µM (inactive).

Take `COc1ccc(C2/C=C\CN(C(=O)c3ccccc3)[C@H](Cc3ccccc3)C(=O)N2Cc2ccc(F)cc2)cc1` (stereo partly drawn): the AC50 is > 26 µM (inactive).

Regarding `O=C(Nc1nc(-c2ccccn2)cs1)c1ccc(Cl)s1`, the AC50 was > 26 µM (inactive).

In the case of `CC(C)c1ccccc1-n1c(SCC(=O)N2CCc3ccccc3C2)nc2ccccc2c1=O`, the AC50 is > 26 µM (inactive).

As for `S=C(Nc1ccc(Cl)cc1)Nc1cccc2cnccc12`, the AC50 was > 26 µM (inactive).

Regarding `COc1ccc(C)cc1Nc1n[n+](-c2ccccc2)c(-c2c(Cl)cccc2Cl)s1`, the AC50 is > 26 µM (inactive).

For the molecule `CCCC1(c2ccccc2)NC(=O)N(CC(=O)Nc2cc(C)ccc2OC)C1=O` (stereo not drawn), the AC50 was > 26 µM (inactive).

For the molecule `Fc1ccc2nc(Nc3nc4c(F)cc(F)cc4s3)sc2c1`, the AC50 was > 26 µM (inactive).

As for `Cc1c(C(=O)N/N=C/c2c(O)ccc3ccccc23)nnn1-c1nonc1N`, the AC50 is > 26 µM (inactive).

Turning to `CCOC(=O)c1cnc(-n2nc(C)cc2C)nc1NNc1cc(C)nc(-c2ccccc2)n1`, the AC50 is > 26 µM (inactive).

`COc1ccc(Sc2nc(-c3ccccn3)ncc2OC)cc1`: the AC50 is > 26 µM (inactive).

Turning to `CC(=O)C1=NN(c2ccccc2)C(c2cccs2)N1c1ccc(N(C)C)cc1` (stereo not drawn), the AC50 is > 26 µM (inactive).

As to `Cc1ccc(NC2=C/C(=N\S(=O)(=O)c3cccs3)c3ccccc3C2=O)c(C)c1`, the AC50 was > 26 µM (inactive).

For `Oc1ccc(CN2CCCc3ccccc32)c2cccnc12`, the AC50 is > 26 µM (inactive).

On to `c1ccc(-c2nc3nonc3nc2-c2ccccc2)cc1`, for which the AC50 is > 26 µM (inactive).

As to `C/C(=N\Nc1nc(C)cc(-c2ccccc2)n1)c1cccc(N)c1`, the AC50 is > 26 µM (inactive).

In the case of `Cc1cc(C(C)(C)CC(C)(C)C)ccc1OCCOCC[N+](C)(C)Cc1ccccc1`, the AC50 was > 26 µM (inactive).

Consider `CCN1CCN(C2=C(NS(=O)(=O)c3ccccc3)C(=O)c3ccccc3C2=O)CC1`, for which the AC50 is > 26 µM (inactive).

For `C(=C\c1nc(N2CCCCCC2)c2ccccc2n1)/c1ccccc1`, the AC50 was > 26 µM (inactive).

Take `Cc1ccccc1Oc1nc(-c2ccccn2)nc2ccccc12`: the AC50 is > 26 µM (inactive).

On to `C/C(=N\Nc1nc(-c2ccccn2)nc2ccccc12)c1ccc(F)cc1`, for which the AC50 was > 26 µM (inactive).

For `O=C1CSC(c2cccnc2)N1CC1CC1` (stereo not drawn), the AC50 is > 26 µM (inactive).

As to `O=C1C(Cl)=C(NCc2cccnc2)C(=O)c2ccccc21`, the AC50 is > 26 µM (inactive).

For `COc1ccc(OC)c2sc(N(CCCN(C)C)C(=O)c3ccc(S(=O)(=O)N4CCc5ccccc5C4)cc3)nc12`, the AC50 was > 26 µM (inactive).

Turning to `O=[N+]([O-])c1cc(C(F)(F)F)ccc1NCCCCNS(=O)(=O)c1ccc(Cl)cc1`, the AC50 was > 26 µM (inactive).

With `O=C(N/N=C/c1c(O)ccc2ccccc12)c1ccc(Br)o1`, the AC50 is > 26 µM (inactive).

As to `Cc1cc2nc(-c3ccc[nH]c3=O)[nH]c2cc1C`, the AC50 was > 26 µM (inactive).

For `CC(=O)Nc1ccc(S(=O)(=O)NC2=C(N3CCN(c4ccc(F)cc4)CC3)C(=O)c3ccccc3C2=O)cc1`, the AC50 is > 26 µM (inactive).

Take `COc1ccccc1N1CCN(Cc2ccc(O)c3ncccc23)CC1`: the AC50 was > 26 µM (inactive).

Take `O=S(=O)(c1cccs1)N1CCN(CC(O)COc2cc(Cl)ccc2Cl)CC1` (stereo not drawn): the AC50 is > 26 µM (inactive).

Turning to `FC(F)Sc1ccc(N=C2NN=C(c3ccc4c(c3)OCCO4)CS2)cc1`, the AC50 is > 26 µM (inactive).

With `COc1cc(NC2CCCCC2O)c2nc(-c3ccc(Cl)cc3)ccc2c1` (stereo not drawn), the AC50 is > 26 µM (inactive).

For `Nc1nc(N)c2cc(Sc3ccc4ccccc4c3)ccc2n1`, the AC50 was > 26 µM (inactive).
